# Test results: patent US6368788B1 (priority 1987, dated 2002)
# Tests used:
# [1] = tested on: peripheral blood leukocytes; assay: Peripheral blood leukocytes in cortisone suppressed rats; format: in vivo; details: for Basophils (% of Normal Control Value) / Basophils: % / Basophils: Total Cells / Eosinophils (% of Normal Control Value) / Eosinophils: % / Eosinophils: Total Cells / Leukocytes (% of Normal Control Value) / Leukocytes: Total Cells / Lymphocytes (% of Normal Control Value) / Lymphocytes: % / Lymphocytes: Total Cells / Monocytes (% of Normal Control Value) / Monocytes: % / Monocytes: Total Cells / Segmented Neutrophils (% of Normal Control Value) / Segmented Neutrophils: % / Segmented Neutrophils: Total Cells / Stab Neutrophils (% of Normal Control Value) / Stab Neutrophils: % / Stab Neutrophils: Total Cells: cortisone suppressed rats, 10 μg/kg im
# Method: An immunocompromised state was established over a period of 80 days in experimental rats by administration of cortisone acetate at a dosage of 25 mg/kg twice weekly with tetracycline hydrocholoride po in drinking water. In the experimental group, L-Glu-L-Trp was administered in three treatment courses, each course consisting of 10 daily im injections of 10 μg/kg or 100 μg/kg, and each course of treatment separated from the next course by a 1 month interval. In the control group, saline was administered in the same three treatment course schedule. Differential blood counts were conducted on day 0 (Normal Control), day 59, and day 79 of the study. […] Results obtained with the 10 μg/kg treatment dose (presented in TABLE 73) were not markedly different than those obtained with the 100 μg/kg dose.
# influenza = assay: Influenza treatments (Protocol E); parameters: species or system human; details: in vivo
# Method: One hundred fifty-six patients (156) with influenza were treated with 100 μg L-Glu-L-Trp im or 1 μg/kg intranasally on each of 5-10 consecutive days. A control group constituted with entry of 82 influenza patients who remained untreated.
# Rauscher MuLV = assay: Anti-viral response to Rauscher MuLV; format: in vivo, mice; details: 50 μg/kg
# Text: Innate mechanisms of anti-viral immunity are important to survival of the host. The Rauscher murine leukemia virus (MuLV) is an example of a highly virulent animal retrovirus infection, first isolated and characterized by Dr. Rauscher from BALB/c mouse tissues in 1962. […] The virus employed in present GLP/blinded study was a murine leukemia complex known to induce progressive erythroleukemia in mice (i.e., Rauscher MuLV and replication-defective Rauscher spleen focus-forming virus). Disease manifested within about 6 days with death by about 50 days. Measurements of splenomegaly, blood reverse transcriptase, virus plaque assays (i.e., XC-plaque assay for viremia using SC-1 host cells) and serum anti-viral antibody titers were used to assess infection. Spleens achieved about 2.0 grams in weight within 21 days of infection, as compared with a normal spleen weights in an uninfected animals of about 0.1 gram.
# Mice were inoculated with Rauscher MuLV complex (0.1 ml/7.8×10^4 PFU/mL) on day 0 and sacrificed on day 21. Test groups were comprised of 10 mice and control groups 6 mice. Control articles included saline and AZT (in drinking water at about 1.25 mg/mouse/day≈63 mg/kg/day/mouse). […] A non-infected group of mice was also sacrificed on day 21 to provide normal control values.
# In EXAMPLE 38, SC-1 cells were originally derived from murine embryos, and XC cells (a rat tumor cell line induced by Rous Sarcoma Virus) were obtained from the ATCC in Rockville, Md.
# [2] = tested on: E-receptors on thymocytes; assay: Expression of E-receptors on trypsin-treated thymocytes (E-RFC); format: cell-based, guinea pigs; details: for E-RFC (%): trypsin-treated thymocytes
# Method: Thymus cells were isolated from male guinea pigs (180-200 g) under standard conditions of tissue mincing and differential centrifugation in Medium 199. Isolated thymocytes were treated with trypsin to remove cell surface E-receptors capable of binding rabbit erythrocytes (E). The percentage of cells capable forming E-rosettes (E-RFC) was decreased by about two-fold under these conditions.
# L-Glu-L-Trp has been reported to restore T-cell receptors and E-RFC following incubation at 37° C. Studies were conducted in which the activity of L-Glu-L-Trp dipeptide were compared in the latter assay.
# Thymocytes were prepared from 48 guinea pigs, treated with trypsin, and tested for E-RFC.
# [3] = Complications of pregnancy: toxemia (Protocol B); parameters: species or system human; details: in vivo
# Method: L-Glu-L-Trp was administered im at 100 μg daily, or 1 μg/kg intranasally, for 5-10 days.
substance,measurement,setting,value
L-Glu-L-Trp,Peripheral blood cells vs saline treated controls,[1]; 10 μg/kg and 100 μg/kg,"increased the number of leukocytes, monocytes, and lymphocytes in the peripheral blood of cortisone-suppressed rats"
same,Basophils (% of Normal Control Value),[1]; Day 59,(71%)
same,Basophils: %,[1]; Day 59,0.4 ± 0.2%
same,Basophils: Total Cells,[1]; Day 59,0.05 ± 0.03 × 10^3/mg
same,Eosinophils (% of Normal Control Value),[1]; Day 59,(150%)
same,Eosinophils: %,[1]; Day 59,4.3 ± 0.4 %
same,Eosinophils: Total Cells,[1]; Day 59,0.6 ± 0.1 × 10^9/L
same,Leukocytes (% of Normal Control Value),[1]; Day 59,(75%)
same,Leukocytes: Total Cells,[1]; Day 59,12.4 ± 1.8 × 10^9/L
same,Lymphocytes (% of Normal Control Value),[1]; Day 59,(11%)
same,Lymphocytes: %,[1]; Day 59,57 ± 1.5 %
same,Lymphocytes: Total Cells,[1]; Day 59,7 ± 1 × 10^9/L
same,Monocytes (% of Normal Control Value),[1]; Day 59,(128%)
same,Monocytes: %,[1]; Day 59,7 ± 0.9 %
same,Monocytes: Total Cells,[1]; Day 59,0.92 ± 0.2 × 10^9/L
same,Segmented Neutrophils (% of Normal Control Value),[1]; Day 59,(73%)
same,Segmented Neutrophils: %,[1]; Day 59,26.7 ± 1 %
same,Segmented Neutrophils: Total Cells,[1]; Day 59,3.3 ± 0.4 × 10^9/L
same,Stab Neutrophils (% of Normal Control Value),[1]; Day 59,(100%)
same,Stab Neutrophils: %,[1]; Day 59,4.7 ± 0.6%
same,Stab Neutrophils: Total Cells,[1]; Day 59,0.6 ± 0.1 × 10^9/L
same,Basophils (% of Normal Control Value),[1]; Day 79,(29%)
same,Basophils: %,[1]; Day 79,0.3 ± 0.2%
same,Basophils: Total Cells,[1]; Day 79,0.02 ± 0.02 × 10^3/mg
same,Eosinophils (% of Normal Control Value),[1]; Day 79,(75%)
same,Eosinophils: %,[1]; Day 79,4 ± 0.9%
same,Eosinophils: Total Cells,[1]; Day 79,0.3 ± 0.1 × 10^9/L
same,Leukocytes (% of Normal Control Value),[1]; Day 79,(49%)
same,Leukocytes: Total Cells,[1]; Day 79,8.06 ± 0.9 × 10^9/L
same,Lymphocytes (% of Normal Control Value),[1]; Day 79,(7.7%)
same,Lymphocytes: %,[1]; Day 79,59 ± 2 %
same,Lymphocytes: Total Cells,[1]; Day 79,4.7 ± 1 × 10^9/L
same,Monocytes (% of Normal Control Value),[1]; Day 79,(100%)
same,Monocytes: %,[1]; Day 79,8 ± 0.8 %
same,Monocytes: Total Cells,[1]; Day 79,0.7 ± 0.1 × 10^9/L
same,Segmented Neutrophils (% of Normal Control Value),[1]; Day 79,(44%)
same,Segmented Neutrophils: %,[1]; Day 79,24.6 ± 1.3 %
same,Segmented Neutrophils: Total Cells,[1]; Day 79,2 ± 2 × 10^9/L
same,Stab Neutrophils (% of Normal Control Value),[1]; Day 79,(58%)
same,Stab Neutrophils: %,[1]; Day 79,4.4 ± 0.7 %
same,Stab Neutrophils: Total Cells,[1]; Day 79,0.35 ± 0.1 × 10^9/L
same,Clinical outcome,influenza,accelerated alleviation of symptoms associated with influenza infection
same,Viremia,Rauscher MuLV,significantly decreased viremia
same,Percentage of E-RFC,[2]; 0.01-1 mg/mL,increased the percentage of E-RFC in trypsin-treated thymocyte cultures
same,E-RFC (%),[2]; Conc. 0.0001 mg/ml,30.3 ± 3.1 %
same,E-RFC (%),[2]; Conc. 0.01 mg/ml,36.8 ± 2.4 %
same,E-RFC (%),[2]; Conc. 1 mg/ml,42.8 ± 3.5 %
same,Clinical outcome,[3],normalized blood pressure
